Test in all cases: AKT enzyme assay (substrate phosphorylation, SPA)
Common to all, as to type: biochemical

The target in one test is T1, AKT3 (Homo sapiens, UniProt Q9Y243).
T1 construct: His-tagged AKT3 (aa 135-479) are isolated and purified in a similar fashion; His; made in house; host or cells: insect cells (by 'similar fashion' to AKT1)
The settings on record: 10 nM activated AKT enzyme, 4 uM ATP, 8 uM peptide, 40 minutes at room temperature; read-out: IC50 value against AKT3. As for the experimental part: (§1) Compounds of the present invention are tested for AKT 1, 2, and 3 protein serine kinase inhibitory activity in substrate phosphorylation assays. This assay examines the ability of small molecule organic compounds to inhibit the serine phosphorylation of a peptide substrate. The substrate phosphorylation assays use the catalytic domains of AKT 1, 2, or 3. AKT 1, 2 and 3 are also commercially available from Upstate USA, Inc. The method measures the ability of the isolated enzyme to catalyze the transfer of the gamma-phosphate from ATP onto the serine residue of a biotinylated synthetic peptide SEQ. ID NO: 5 (Biotin-ahx-[…]-amide). Substrate phosphorylation is detected by the following procedure:
(§2) Assays are performed in 384 well U-bottom white plates. […] ATP/well, 1 mM CHAPS, 2 mM DTT, and 1 ul of test compound in 100% DMSO. The reaction is stopped by the addition of 50 ul SPA bead mix (Dulbecco's PBS without Mg^2+ and Ca^2+, 0.1% Triton X-100, 5 mM EDTA, 50 uM ATP, 2.5 mg/ml Streptavidin-coated SPA beads.) The plate is sealed, the beads are allowed to settle overnight, and then the plate is counted in a Packard Topcount Microplate Scintillation Counter (Packard Instrument Co., Meriden, Conn.).
(§3) The data for dose responses are plotted as % Control calculated with the data reduction formula 100*(U1−C2)/(C1−C2) versus concentration of compound where U is the unknown value, C1 is the average control value obtained for DMSO, and C2 is the average control value obtained for 0.1M EDTA. Data are fitted to the curve described by: y=((Vmax*x)/(K+x)) where Vmax is the upper asymptote and K is the IC50.

The next test deals with T2, AKT2 (Homo sapiens, UniProt P31751).
T2 construct: His-tagged AKT2 (aa 138-481) and His-tagged AKT3 (aa 135-479) are isolated; His; made in house; host or cells: insect cells (by 'similar fashion' to AKT1)
Particulars: 10 nM activated AKT enzyme, 4 uM ATP, 8 uM peptide, 40 minutes at room temperature; read-out: IC50 value against AKT2. As for the experimental part:
as §1, §2, §3

The next test concerns the target T3, AKT1 (Homo sapiens, UniProt P31749).
T3 construct: Insect cells expressing His-tagged AKT1 (aa 136-480) are lysed; His; made in house; host or cells: insect cells
Particulars: 10 nM activated AKT enzyme, 4 uM ATP, 8 uM peptide, 40 minutes at room temperature; read-out: IC50 value against AKT1. As for the experimental part:
Cell debris are removed by centrifuging at 28,000×g for 30 minutes. The supernatant is filtered through a […] filter then loaded onto a nickel-chelating column pre-equilibrated with lysis buffer. The column is washed with 5 column volumes (CV) of lysis buffer then with 5 CV of 20% buffer B, where buffer B is 25 mM HEPES, 100 mM NaCl, 300 mM imidazole; pH 7.5. […] The sample is then chromatographed over a Q-Sepharose HP column pre-equilibrated with buffer C. The column is washed with 5 CV of buffer C then step eluted with 5 CV 10% D, 5 CV 20% D, 5 CV 30% D, 5 CV 50% D and 5 CV of 100% D; where buffer D is 25 mM HEPES, 1000 mM NaCl; pH 7.5. […] The protein is pooled, concentrated and frozen at −80 C.
as §1, §2, §3

T3 sequence (P31749 136-480): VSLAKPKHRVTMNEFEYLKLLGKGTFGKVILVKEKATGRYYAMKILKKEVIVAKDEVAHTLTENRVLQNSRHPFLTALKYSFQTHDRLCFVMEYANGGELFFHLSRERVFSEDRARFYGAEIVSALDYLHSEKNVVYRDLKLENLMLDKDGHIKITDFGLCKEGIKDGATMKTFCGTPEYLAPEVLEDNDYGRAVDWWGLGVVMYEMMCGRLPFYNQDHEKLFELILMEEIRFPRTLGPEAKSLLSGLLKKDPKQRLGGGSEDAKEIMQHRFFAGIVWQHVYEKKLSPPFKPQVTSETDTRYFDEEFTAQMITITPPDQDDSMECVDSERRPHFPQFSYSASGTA
T2 sequence (P31751 138-481): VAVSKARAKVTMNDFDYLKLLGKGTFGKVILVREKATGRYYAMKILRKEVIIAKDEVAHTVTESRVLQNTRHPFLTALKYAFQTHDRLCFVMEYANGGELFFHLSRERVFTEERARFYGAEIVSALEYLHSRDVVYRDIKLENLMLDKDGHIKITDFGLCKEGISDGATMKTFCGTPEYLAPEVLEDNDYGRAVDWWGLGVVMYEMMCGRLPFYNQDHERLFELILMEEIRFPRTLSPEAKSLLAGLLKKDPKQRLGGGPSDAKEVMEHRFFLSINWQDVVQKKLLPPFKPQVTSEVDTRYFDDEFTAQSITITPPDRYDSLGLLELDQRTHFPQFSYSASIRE
T1 sequence (Q9Y243 135-479): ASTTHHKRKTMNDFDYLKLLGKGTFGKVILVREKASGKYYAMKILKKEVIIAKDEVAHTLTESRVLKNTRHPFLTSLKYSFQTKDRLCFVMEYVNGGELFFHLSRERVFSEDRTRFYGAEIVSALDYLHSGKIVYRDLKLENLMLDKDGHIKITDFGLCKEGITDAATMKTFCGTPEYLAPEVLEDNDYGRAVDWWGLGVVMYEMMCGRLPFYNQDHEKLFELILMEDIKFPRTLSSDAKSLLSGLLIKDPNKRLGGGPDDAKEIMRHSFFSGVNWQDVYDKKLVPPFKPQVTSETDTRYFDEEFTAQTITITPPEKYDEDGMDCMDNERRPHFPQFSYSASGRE

For the compound `CCn1c(-c2nonc2N)nc2c(C#CC(C)(C)O)nc(OC(CN)c3cccc4c3OCO4)cc21` (racemic) [Example 92, 4-[6-{[2-amino-1-(1,3-benzodioxol-4-yl)ethyl]oxy}-2-(4-amino-1,2,5-oxadiazol-3-yl)-1-ethyl-1H-imidazo[4,5-c]pyridin-4-yl]-2-methyl-3-butyn-2-ol], the IC50 on AKT3, at AKT2 and at AKT1 was at most 500 nM throughout.

With `CCn1c(-c2nonc2N)nc2c(C#CC(C)(C)O)nc(OC(CN)c3cccc4c3OCO4)cc21` (single isomer, unassigned) [Example 93, 4-[6-{[2-amino-1-(1,3-benzodioxol-4-yl)ethyl]oxy}-2-(4-amino-1,2,5-oxadiazol-3-yl)-1-ethyl-1H-imidazo[4,5-c]pyridin-4-yl]-2-methyl-3-butyn-2-ol], the IC50 on AKT3, on AKT2 and at AKT1 was at most 500 nM throughout.

With `CCn1c(-c2nonc2N)nc2c(C#CC(C)(C)O)nc(OC(CN)C3CCCCC3)cc21` (single isomer, unassigned) [Example 123, 4-[6-[(2-amino-1-cyclohexylethyl)oxy]-2-(4-amino-1,2,5-oxadiazol-3-yl)-1-ethyl-1H-imidazo[4,5-c]pyridin-4-yl]-2-methyl-3-butyn-2-ol], the IC50 on AKT3, on AKT2 and on AKT1 was at most 500 nM in each case.

For `CCn1c(-c2nonc2N)nc2c(C#CC(C)(C)O)nc(OC[C@H](N)Cc3ccccc3)cc21` [Example 43, 4-(2-(4-amino-1,2,5-oxadiazol-3-yl)-6-{[(2R)-2-amino-3-phenylpropyl]oxy}-1-ethyl-1H-imidazo[4,5-c]pyridin-4-yl)-2-methyl-3-butyn-2-ol], the IC50 on AKT3 and on AKT1 was at most 500 nM each time.

Consider `CCn1c(-c2nonc2N)nc2c(C#CC(C)(C)O)nc(OC(CN)c3ccccc3)cc21` (centres unmarked) [Example 77, 4-{2-(4-amino-1,2,5-oxadiazol-3-yl)-6-[(2-amino-1-phenylethyl)oxy]-1-ethyl-1H-imidazo[4,5-c]pyridin-4-yl}-2-methyl-3-butyn-2-ol], for which the IC50 at AKT3 is at most 500 nM.

As for `CCn1c(-c2nonc2N)nc2c(C#CC(C)(C)O)nc(O[C@@H](CN)c3ccccc3)cc21` [Example 86, 4-(2-(4-amino-1,2,5-oxadiazol-3-yl)-6-{[(1R)-2-amino-1-phenylethyl]oxy}-1-ethyl-1H-imidazo[4,5-c]pyridin-4-yl)-2-methyl-3-butyn-2-ol], at AKT3, the half-maximal inhibitory concentration (IC50) was at most 500 nM.

With `CCn1c(-c2nonc2N)nc2c(C#CC(C)(C)O)nc(OC(CN)Cc3ccccc3)cc21` (centres unmarked) [Example 106, 4-(2-(4-amino-1,2,5-oxadiazol-3-yl)-6-{[2-amino-1-(phenylmethyl)ethyl]oxy}-1-ethyl-1H-imidazo[4,5-c]pyridin-4-yl)-2-methyl-3-butyn-2-ol], the half-maximal inhibitory concentration (IC50) on AKT3, on AKT2 and on AKT1 was at most 500 nM throughout.

On to `CCn1c(-c2nonc2N)nc2c(C#CC(C)(C)O)nc(O[C@@H](CCN)c3ccccc3)cc21` [Example 108, 4-(2-(4-amino-1,2,5-oxadiazol-3-yl)-6-{[(1S)-3-amino-1-phenylpropyl]oxy}-1-ethyl-1H-imidazo[4,5-c]pyridin-4-yl)-2-methyl-3-butyn-2-ol], for which, at AKT3, the IC50 is at most 500 nM.

Regarding `CCn1c(-c2nonc2N)nc2c(C#CC(C)(C)O)nc(O[C@@H](c3ccccc3)[C@H]3CCCN3)cc21` [Example 117, 4-[2-(4-amino-1,2,5-oxadiazol-3-yl)-1-ethyl-6-([(S)-phenyl[(2R)-2-pyrrolidinyl]methyl]oxy)-1H-imidazo[4,5-c]pyridin-4-yl]-2-methyl-3-butyn-2-ol], the IC50 on AKT3, on AKT2 and on AKT1 was at most 500 nM in each case.

Turning to `CCn1c(-c2nonc2N)nc2c(C#CC(C)(C)O)nc(OC(CN)c3cccc(OC)c3)cc21` (centres unmarked) [Example 132, 4-[6-({2-amino-1-[3-(methyloxy)phenyl]ethyl}oxy)-2-(4-amino-1,2,5-oxadiazol-3-yl)-1-ethyl-1H-imidazo[4,5-c]pyridin-4-yl]-2-methyl-3-butyn-2-ol], the IC50 on AKT3, at AKT2 and at AKT1 was at most 500 nM each time.

Consider `CCn1c(-c2nonc2N)nc2c(C#CC(C)(C)O)nc(OC[C@H](N)Cc3ccccc3Cl)cc21` [Example 143, 4-[6-{[(2R)-2-amino-3-(2-chlorophenyl)propyl]oxy}-2-(4-amino-1,2,5-oxadiazol-3-yl)-1-ethyl-1H-imidazo[4,5-c]pyridin-4-yl]-2-methyl-3-butyn-2-ol], for which the IC50 at AKT3, at AKT2 and on AKT1 was at most 500 nM each time.

As for `CCn1c(-c2nonc2N)nc2c(C#CC(C)(C)O)nc(OC(CN)c3cccc(Cl)c3)cc21` (centres unmarked) [Example 151, 4-[6-{[2-amino-1-(3-chlorophenyl)ethyl]oxy}-2-(4-amino-1,2,5-oxadiazol-3-yl)-1-ethyl-1H-imidazo[4,5-c]pyridin-4-yl]-2-methyl-3-butyn-2-ol], the IC50 at AKT3, on AKT2 and at AKT1 was at most 500 nM throughout.

For the compound `CCn1c(-c2nonc2N)nc2c(C#CC(C)(C)O)nc(OC(CN)c3ccccc3Cl)cc21` (centres unmarked) [Example 152, 4-[6-{[2-amino-1-(2-chlorophenyl)ethyl]oxy}-2-(4-amino-1,2,5-oxadiazol-3-yl)-1-ethyl-1H-imidazo[4,5-c]pyridin-4-yl]-2-methyl-3-butyn-2-ol], the half-maximal inhibitory concentration (IC50) at AKT3, on AKT2 and on AKT1 was at most 500 nM each time.

(Values after patent publication US20080318947A1, “Inhibitors of Akt Activity” (priority 2005, published 2008).)
